Consider 14 molecules from patent US20250129070A1, “BIFUNCTIONAL ANDROGEN RECEPTOR COMPOUNDS” (priority 2023, published 2025).

For one test, the system named is VCaP cells. In words: VCaP growth inhibition assay. To be noted: 30 pM R1881, 9 days, CTG. In kind it is cell-based. Put shortly:
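Growth read by CTG luminescence after 9-day exposure to compound (final 100 nM–10 fM, 1:5 steps) plus 30 pM R1881, in phenol red-free DMEM with 5% CSS. Cells pre-incubated 72 h before dosing; IC50 by nonlinear 4-parameter regression.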

The test system of a further test is AR / CBP ternary complex. In words: Ternary complex formation assay (sandwich ELISA, AR capture / CBP detection) in VCaP cell lysates. As to conditions: 1.5 hours treatment, sandwich ELISA (AR capture, CBP or p300 detection). The test is classed as cell-based. Put shortly: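 Anti-AR (AR 441)-coated plates capture AR from lysates of VCaP cells grown ≥3 days at 50K/well in 5% charcoal-stripped FBS, dosed with bifunctional for 1.5 h and lysed 30 min at 4 °C. Co-captured CBP/p300 is probed with rabbit mAb and HRP anti-rabbit, then QuantaRed fluorescence (570/585) is read at 0, 5 and 15 min.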

As usually defined, the IC50 is the concentration that gives 50% inhibition. A lower IC50 goes with inhibition by little substance. One may read the EC50 as the concentration at which the effect is half-maximal. A high value points to weaker potency. In the test with VCaP cells, `CN1C(=O)CCc2cc(-c3cccc4cc(-c5ccc(CCC6CCN(c7ncc(C(=O)NC8C(C)(C)C(Oc9ccc(C#N)c(Cl)c9)C8(C)C)cn7)CC6)nc5)ncc34)ccc21` (stereo not shown) [Compound 238, N-[3-(3-chloro-4-cyano-phenoxy)-2,2,4,4-tetramethyl-cyclobutyl]-2-[4-[2-[5-[8-(1-methyl-2-oxo-3,4-dihydroquinolin-6-yl)-3-isoquinolyl]-2-pyridyl]ethyl]-1-piperidyl]pyrimidine-5-carboxamide] gave an IC50 of more than 100 nM. In addition, the EC50 in the test on AR / CBP ternary complex was in the range of 10 to 100 nM.
In the case of `COc1cc(OC2C(C)(C)C(NC(=O)c3ccc(N4CC[C@H](N5CCC(n6nc(N7CCCc8cc(-c9cnn(C)c9)c(C(F)F)cc87)c7c6CCN(C(C)=O)C7)CC5)C4)cc3)C2(C)C)ccc1C#N` (stereo partly drawn) [Compound 336, 4-[(3S)-3-[4-[5-acetyl-3-[7-(difluoromethyl)-6-(1-methylpyrazol-4-yl)-3,4-dihydro-2H-quinolin-1-yl]-6,7-dihydro-4H-pyrazolo[4,3-c]pyridin-1-yl]-1-piperidyl]pyrrolidin-1-yl]-N-[3-(4-cyano-3-methoxy-phenoxy)-2,2,4,4-tetramethyl-cyclobutyl]benzamide], in the test on VCaP cells, the IC50 lay in the range of 1 to 100 nM. In addition, the 50% effective concentration (EC50) in the test with AR / CBP ternary complex is less than 1 nM.
The corresponding values for `CC(=O)N1CCc2c(c(-c3cccc4cc(-c5cnn(CC6CC7(C6)CN(c6ncc(C(=O)NC8C(C)(C)C(Oc9ccc(C#N)c(Cl)c9)C8(C)C)cn6)C7)c5)ncc34)nn2C2CCOCC2)C1` (stereo not shown) [Compound 223, 2-[6-[[4-[8-(5-acetyl-1-tetrahydropyran-4-yl-6,7-dihydro-4H-pyrazolo[4,3-c]pyridin-3-yl)-3-isoquinolyl]pyrazol-1-yl]methyl]-2-azaspiro[3.3]heptan-2-yl]-N-[3-(3-chloro-4-cyano-phenoxy)-2,2,4,4-tetramethyl-cyclobutyl]pyrimidine-5-carboxamide] are not above 0.1 nM and less than 1 nM.
In the test on VCaP cells, `COc1cc(OC2C(C)(C)C(NC(=O)c3ccc(N4CC(N5CCC6(CCC(n7nc(N8CCCc9cc(-c%10cnn(C)c%10)c(C(F)F)cc98)c8c7CCN(C(C)=O)C8)CC6)C5)C4)cc3)C2(C)C)ccc1C#N` (stereo not shown) [Compound 401, 4-[3-[8-[5-acetyl-3-[7-(difluoromethyl)-6-(1-methylpyrazol-4-yl)-3,4-dihydro-2H-quinolin-1-yl]-6,7-dihydro-4H-pyrazolo[4,3-c]pyridin-1-yl]-2-azaspiro [4.5]decan-2-yl]azetidin-1-yl]-N-[3-(4-cyano-3-methoxy-phenoxy)-2,2,4,4-tetramethyl-cyclobutyl]benzamide] had an IC50 of 0.1 to 1 nM. Moreover, in the test with AR / CBP ternary complex, the EC50 was less than 1 nM.
The corresponding values for `CC(=O)N1CCc2c(c(Nc3ccc(-c4cnn(C)c4)cc3F)nn2C2CCN(CCN3CCN(c4ncc(C(=O)NC5C(C)(C)C(Oc6ccc(C#N)c(Cl)c6)C5(C)C)cn4)CC3)CC2)C1` (stereo not shown) [Compound 167, 2-[4-[2-[4-[5-acetyl-3-[2-fluoro-4-(1-methylpyrazol-4-yl)anilino]-6,7-dihydro-4H-pyrazolo[4,3-c]pyridin-1-yl]-1-piperidyl]ethyl]piperazin-1-yl]-N-[3-(3-chloro-4-cyano-phenoxy)-2,2,4,4-tetramethyl-cyclobutyl]pyrimidine-5-carboxamide] are 0.1 to 1 nM and less than 1 nM.
Take `CC(=O)N1CCc2c(c(-c3cccc4cc(-c5cnn(CCC6CC7(C6)CN(c6ncc(C(=O)NC8C(C)(C)C(Oc9ccc(C#N)c(Cl)c9)C8(C)C)cn6)C7)c5)ncc34)nn2C2CCOCC2)C1` (stereo not shown) [Compound 225, 2-[6-[2-[4-[8-(5-acetyl-1-tetrahydropyran-4-yl-6,7-dihydro-4H-pyrazolo[4,3-c]pyridin-3-yl)-3-isoquinolyl]pyrazol-1-yl]ethyl]-2-azaspiro[3.3]heptan-2-yl]-N-[3-(3-chloro-4-cyano-phenoxy)-2,2,4,4-tetramethyl-cyclobutyl]pyrimidine-5-carboxamide]: the half-maximal inhibitory concentration (IC50) in the test on VCaP cells is 0.1 to 1 nM. In the test with AR / CBP ternary complex, this molecule gave an EC50 of less than 1 nM.
As to `CC(=O)N1CCc2c(c(N3CCCc4cc(-c5cnn(C)c5)c(C(F)F)cc43)nn2C2CCN(C3CC4(C3)CN(c3ncc(C(=O)NC5C(C)(C)C(Oc6ccc(C#N)c(Cl)c6)C5(C)C)cn3)C4)CC2)C1` (stereo not shown) [Compound 348, 2-[6-[4-[5-acetyl-3-[7-(difluoromethyl)-6-(1-methylpyrazol-4-yl)-3,4-dihydro-2H-quinolin-1-yl]-6,7-dihydro-4H-pyrazolo[4,3-c]pyridin-1-yl]-1-piperidyl]-2-azaspiro [3.3]heptan-2-yl]-N-[3-(3-chloro-4-cyano-phenoxy)-2,2,4,4-tetramethyl-cyclobutyl]pyrimidine-5-carboxamide], the IC50 in the test with VCaP cells was not above 0.1 nM. The EC50 in the test with AR / CBP ternary complex was less than 1 nM.
In the same order, the values of `COc1cc(OC2C(C)(C)C(NC(=O)c3ccc(N4CC5(CC(N6CCC(n7nc(N8CCCc9cc(-c%10cnn(C)c%10)c(C(F)F)cc98)c8c7CCN(C(C)=O)C8)CC6)C5)C4)cc3)C2(C)C)ccc1C#N` (stereo not shown) [Compound 349, 4-[6-[4-[5-acetyl-3-[7-(difluoromethyl)-6-(1-methylpyrazol-4-yl)-3,4-dihydro-2H-quinolin-1-yl]-6,7-dihydro-4H-pyrazolo[4,3-c]pyridin-1-yl]-1-piperidyl]-2-azaspiro[3.3]heptan-2-yl]-N-[3-(4-cyano-3-methoxy-phenoxy)-2,2,4,4-tetramethyl-cyclobutyl]benzamide] are not above 0.1 nM and less than 1 nM.
As for `COc1cc(OC2C(C)(C)C(NC(=O)c3ccc(N4CC(C)C(CN5CCC(n6nc(N7CCCc8cc(C#N)c(C(F)F)cc87)c7c6CCN(C(C)=O)C7)CC5)C(C)C4)cc3)C2(C)C)ccc1C#N` (stereo not shown) [Compound 459, 4-[4-[[4-[5-acetyl-3-[6-cyano-7-(difluoromethyl)-3,4-dihydro-2H-quinolin-1-yl]-6,7-dihydro-4H-pyrazolo[4,3-c]pyridin-1-yl]-1-piperidyl]methyl]-3,5-dimethyl-1-piperidyl]-N-[3-(4-cyano-3-methoxy-phenoxy)-2,2,4,4-tetramethyl-cyclobutyl]benzamide], the IC50 in the test on VCaP cells lay in the range of 0.1 to 1 nM. Moreover, the EC50 in the test with AR / CBP ternary complex was less than 1 nM.
In the test with VCaP cells, `COc1cc(OC2C(C)(C)C(NC(=O)c3ccc(N4CCC(CCc5ccc(-c6cc7cccc(-c8nn(C9CCOCC9)c9c8CN(C(C)=O)CC9)c7cn6)cn5)CC4)cc3)C2(C)C)ccc1C#N` (stereo not shown) [Compound 245, 4-[4-[2-[5-[8-(5-acetyl-1-tetrahydropyran-4-yl-6,7-dihydro-4H-pyrazolo[4,3-c]pyridin-3-yl)-3-isoquinolyl]-2-pyridyl]ethyl]-1-piperidyl]-N-[3-(4-cyano-3-methoxy-phenoxy)-2,2,4,4-tetramethyl-cyclobutyl]benzamide] showed an IC50 of 0.1 to 1 nM. In the test on AR / CBP ternary complex, this molecule yielded an EC50 of less than 1 nM.
In the same order, the values of `CC(=O)N1CCc2c(c(N3CCCc4cc(-c5cnn(C)c5)c(C(F)F)cc43)nn2C2CCC(CN3CCN(c4ncc(C(=O)NC5C(C)(C)C(Oc6ccc(C#N)c(Cl)c6)C5(C)C)cn4)CC3)CC2)C1` (stereo not shown) [Compound 318, 2-[4-[[4-[5-acetyl-3-[7-(difluoromethyl)-6-(1-methylpyrazol-4-yl)-3,4-dihydro-2H-quinolin-1-yl]-6,7-dihydro-4H-pyrazolo[4,3-c]pyridin-1-yl]cyclohexyl]methyl]piperazin-1-yl]-N-[3-(3-chloro-4-cyano-phenoxy)-2,2,4,4-tetramethyl-cyclobutyl]pyrimidine-5-carboxamide] are not above 0.1 nM and less than 1 nM.
`CC(=O)N1CCc2c(c(-c3cccc4cc(-c5ccc(C(=O)NCCOCc6ncc(C(=O)NC7C(C)(C)C(Oc8ccc(C#N)c(Cl)c8)C7(C)C)cn6)nc5)ncc34)nn2C2CCOCC2)C1` (stereo not shown) [Compound 76, 2-[2-[[5-[8-(5-acetyl-1-tetrahydropyran-4-yl-6,7-dihydro-4H-pyrazolo[4,3-c]pyridin-3-yl)-3-isoquinolyl]pyridine-2-carbonyl]amino]ethoxymethyl]-N-[3-(3-chloro-4-cyano-phenoxy)-2,2,4,4-tetramethyl-cyclobutyl]pyrimidine-5-carboxamide] returned an IC50 with VCaP cells not above 0.1 nM. The EC50 with AR / CBP ternary complex was less than 1 nM.
In the same order, the values of `COc1cc(OC2C(C)(C)C(NC(=O)c3ccc(N4CCC(CN5CCC(n6nc(N7CCCc8cc(-c9cnn(C)c9)c(C(F)F)cc87)c7c6CCN(C(C)=O)C7)CC5)(OC)CC4)cc3)C2(C)C)ccc1C#N` (stereo not shown) [Compound 264, 4-[4-[[4-[5-acetyl-3-[7-(difluoromethyl)-6-(1-methylpyrazol-4-yl)-3,4-dihydro-2H-quinolin-1-yl]-6,7-dihydro-4H-pyrazolo[4,3-c]pyridin-1-yl]-1-piperidyl]methyl]-4-methoxy-1-piperidyl]-N-[3-(4-cyano-3-methoxy-phenoxy)-2,2,4,4-tetramethyl-cyclobutyl]benzamide] are 0.1 to 1 nM and less than 1 nM.
`COc1cc(OC2C(C)(C)C(NC(=O)c3ccc(N4CC5(CCN(C6CCC(n7nc(N8CCCc9cc(-c%10cnn(C)c%10)c(C(F)F)cc98)c8c7CCN(C(C)=O)C8)CC6)CC5)C4)cc3)C2(C)C)ccc1C#N` (stereo not shown) [Compound 288, 4-[7-[4-[5-acetyl-3-[7-(difluoromethyl)-6-(1-methylpyrazol-4-yl)-3,4-dihydro-2H-quinolin-1-yl]-6,7-dihydro-4H-pyrazolo[4,3-c]pyridin-1-yl]cyclohexyl]-2,7-diazaspiro[3.5]nonan-2-yl]-N-[3-(4-cyano-3-methoxy-phenoxy)-2,2,4,4-tetramethyl-cyclobutyl]benzamide]: in the test with VCaP cells, the IC50 was not above 0.1 nM. In the test on AR / CBP ternary complex, this molecule returned an EC50 of less than 1 nM.
